In ChEMBL document CHEMBL1138973, “Opiate receptor binding properties of morphine-, dihydromorphine-, and codeine 6-O-sulfate ester congeners” (Bioorg Med Chem Lett, 2006):
pKi: −log10 of the molar value.

Assays:
Mu-type opioid receptor = Mu-type opioid receptor (Cavia porcellus, UniProt P97266); assay: Displacement of radiolabeled DAMGO from mu opioid receptor in Hartley guinea pig brain
[1] = biological target: Kappa-type opioid receptor (Cavia porcellus, UniProt P41144); assay: Displacement of radiolabeled U69593 from kappa1 opioid receptor in Hartley guinea pig brain
Sequence of Kappa-type opioid receptor (P41144 whole entry): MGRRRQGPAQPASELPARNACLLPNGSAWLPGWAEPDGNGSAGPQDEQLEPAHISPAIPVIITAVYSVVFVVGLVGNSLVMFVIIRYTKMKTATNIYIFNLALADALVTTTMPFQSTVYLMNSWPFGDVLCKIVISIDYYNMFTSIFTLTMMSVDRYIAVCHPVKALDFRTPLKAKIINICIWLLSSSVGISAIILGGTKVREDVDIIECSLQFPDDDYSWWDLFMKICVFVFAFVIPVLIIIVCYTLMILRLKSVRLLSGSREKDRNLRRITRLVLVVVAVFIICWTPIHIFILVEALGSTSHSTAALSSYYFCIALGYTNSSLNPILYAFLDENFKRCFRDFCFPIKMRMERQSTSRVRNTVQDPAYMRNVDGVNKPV

[2] = Plasma half life in rat; type: ADME, organism-based

Sequence of Mu-type opioid receptor (P97266 whole entry): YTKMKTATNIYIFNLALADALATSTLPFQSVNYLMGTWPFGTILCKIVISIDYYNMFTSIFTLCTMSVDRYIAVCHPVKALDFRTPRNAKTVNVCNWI

Structure (SMILES)	pKi (Mu-type opioid receptor)	pKi [1]	half-life [2]
CN1CC[C@]23c4c5ccc(OS(=O)(=O)O)c4O[C@H]2[C@@H](O)C=C[C@H]3[C@H]1C5	7.00	< 5.00	
COc1ccc2c3c1O[C@H]1[C@@H](OS(=O)(=O)O)CC[C@H]4[C@@H](C2)N(C)CC[C@@]341	6.71	< 5.00	
COc1ccc2c3c1O[C@H]1[C@@H](OS(=O)(=O)O)C=C[C@H]4[C@@H](C2)N(C)CC[C@@]341	7.41	< 5.00	
CN1CC[C@]23c4c5ccc(O)c4O[C@H]2[C@@H](OS(=O)(=O)O)C=C[C@H]3[C@H]1C5	9.05		
CC1(C)SSC(C)(C)[C@@H](NC(=O)[C@@H](N)Cc2ccc(O)cc2)C(=O)NCC(=O)N[C@@H](Cc2ccc(Cl)cc2)C(=O)N[C@H]1C(=O)O		< 5.00	
CN1CC[C@]23c4c5ccc(OC(=O)c6ccccc6)c4O[C@H]2[C@@H](OS(=O)(=O)O)C=C[C@H]3[C@H]1C5	7.43	< 5.00	
C[N+]1(C)CC[C@]23c4c5ccc(OC(=O)c6ccccc6)c4O[C@H]2[C@@H](OS(=O)(=O)[O-])C=C[C@H]3[C@H]1C5	6.35	< 5.00	
CC(C)C(=O)Oc1ccc2c3c1O[C@H]1[C@@H](OS(=O)(=O)O)C=C[C@H]4[C@@H](C2)N(C)CC[C@@]341	7.70		
CN1CC[C@]23c4c5ccc(OC(=O)C(C)(C)C)c4O[C@H]2[C@@H](OS(=O)(=O)O)C=C[C@H]3[C@H]1C5	9.15		
CN1CC[C@]23c4c5ccc(OC(=O)c6ccccc6)c4O[C@H]2[C@@H](OS(=O)(=O)O)CC[C@H]3[C@H]1C5	7.21	< 5.00	
CC(=O)Oc1ccc2c3c1O[C@H]1[C@@H](OS(=O)(=O)O)C=C[C@H]4[C@@H](C2)N(C)CC[C@@]341	9.10		> 1 h
C=CCN1CCC23c4c5ccc(O)c4O[C@@H]2/C(=N/NC(=O)c2ccccc2)CCC3(O)C1C5 (some centres undefined)	9.70	9.40	
CC(=O)Oc1ccc2c3c1O[C@H]1[C@@H](OS(=O)(=O)[O-])C=C[C@H]4[C@@H](C2)[N+](C)(C)CC[C@@]341	7.47	< 5.00	> 1 h
CCC(=O)Oc1ccc2c3c1O[C@H]1[C@@H](OS(=O)(=O)O)C=C[C@H]4[C@@H](C2)N(C)CC[C@@]341	9.22		
CN1CC[C@]23c4c5ccc(O)c4O[C@H]2[C@@H](OS(=O)(=O)O)CC[C@H]3[C@H]1C5	8.82	5.50	
CC(=O)Oc1ccc2c3c1O[C@H]1[C@@H](OS(=O)(=O)O)CC[C@H]4[C@@H](C2)N(C)CC[C@@]341	7.86	< 5.00	> 1 h
